Experiments:
[1] = target: T1, isolated recombinant JAK1 kinase domain (Homo sapiens, UniProt P23458); test: JAK1 enzyme assay (Caliper LabChip, Ki); type: biochemical; conditions: recombinant JAK1 kinase domain, 25 μM ATP
T1 construct: The activity of the isolated recombinant JAK1 and JAK2 kinase domain was measured
Procedure: (§1) JAK Enzyme Assays were Carried Out as Follows:
(§2) The activity of the isolated recombinant JAK1 and JAK2 kinase domain was measured by monitoring phosphorylation of a peptide derived from JAK3 (Val-Ala-Leu-Val-Asp-Gly-Tyr-Phe-Arg-Leu-Thr-Thr, fluorescently labeled on the N-terminus with 5-carboxyfluorescein) using the Caliper LabChip® technology (Caliper Life Sciences, Hopkinton, Mass.). […] Reactions were incubated at 22° C. in 384-well polypropylene microtiter plates for 30 minutes and then stopped by addition of 25 μL of an EDTA containing solution (100 mM HEPES buffer (pH 7.2), 0.015% Brij-35, 150 mM EDTA), resulting in a final EDTA concentration of 50 mM. After termination of the kinase reaction, the proportion of phosphorylated product was determined as a fraction of total peptide substrate using the Caliper LabChip® 3000 according to the manufacturer's specifications. Ki values were then determined using the Morrison tight binding model (Morrison, J. F., Biochim. Biophys. Acta. 185:269-296 (1969); William, J. W. and Morrison, J. F., Meth. Enzymol., 63:437-467 (1979)) modified for ATP-competitive inhibition [Ki=Ki,app/(1+[ATP]/Km,app)].

[2] = target: T2, isolated recombinant JAK2 kinase domain (Homo sapiens, UniProt O60674); test: JAK2 enzyme assay (Caliper LabChip, Ki); type: biochemical; conditions: 25 μM ATP
T2 construct: The activity of the isolated recombinant JAK1 and JAK2 kinase domain was measured
Procedure: as §1, §2

[3] = tested on: JAK1-dependent STAT6 phosphorylation downstream of IL-13 stimulation in BEAS-2B human bronchial epithelial cells; test: JAK1 pathway assay in BEAS-2B cells (IL-13 stimulated STAT6 phosphorylation, MSD); type: cell-based; conditions: read-out: P-STAT6 BEAS2B + IL13 IC50
Procedure: JAK1 Pathway Assay in Cell Lines was Carried Out as Follows:
Inhibitor potency (EC50) was determined in cell-based assays designed to measure JAK1 dependent STAT phosphorylation. As noted above, inhibition of IL-4, IL-13, and IL-9 signaling by blocking the Jak/Stat signaling pathway can alleviate asthmatic symptoms in pre-clinical lung inflammation models (Mathew et al., 2001, J Exp Med 193(9): 1087-1096; Kudlacz et. al., 2008, Eur J. Pharmacol 582(1-3): 154-161).
In one assay approach, TF-1 human erythroleukemia cells obtained from the American Type Culture Collection (ATCC; Manassas, Va.) were used to measure JAK1-dependent STAT6 phosphorylation downstream of IL-13 stimulation. Prior to use in the assays, TF-1 cells were starved of GM-CSF overnight in OptiMEM medium (Life Technologies, Grand Island, N.Y.) supplemented with 0.5% charcoal/dextran stripped fetal bovine serum (FBS), 0.1 mM non-essential amino acids (NEAA), and 1 mM sodium pyruvate. The assays were run in 384-well plates in serum-free OptiMEM medium using 300,000 cells per well. In a second assay approach, BEAS-2B human bronchial epithelial cells obtained from ATCC were plated at 100,000 cells per well of a 96-well plate one day prior to the experiment. The BEAS-2B assay was run in complete growth medium (bronchial epithelial basal medium plus bulletkit; Lonza; Basel, Switzerland).
Test compounds were serially diluted 1:2 in DMSO and then diluted 1:50 in medium just before use. Diluted compounds were added to the cells, for a final DMSO concentration of 0.2%, and incubated for 30 min (for the TF-1 assay) or 1 hr (for the BEAS-2B assay) at 37° C. Then, cells were stimulated with human recombinant cytokine at their respective EC90 concentrations, as previously determined for each individual lot. Cells were stimulated with IL-13 (R&D Systems, Minneapolis, Minn.) for 15 min at 37° C. The TF-1 cell reactions were stopped by the direct addition of 10× lysis buffer (Cell Signaling Technologies, Danvers, Mass.), whereas the BEAS-2B cell incubations were halted by the removal of medium and addition of 1× lysis buffer. The resultant samples were frozen in the plates at −80° C. Compound mediated inhibition of STAT6 phosphorylation was measured in the cell lysates using MesoScale Discovery (MSD) technology (Gaithersburg, Md.). EC50 values were determined as the concentration of compound required for 50% inhibition of STAT phosphorylation relative to that measured for the DMSO control.

T2 sequence (O60674 849-1124 limits assumed): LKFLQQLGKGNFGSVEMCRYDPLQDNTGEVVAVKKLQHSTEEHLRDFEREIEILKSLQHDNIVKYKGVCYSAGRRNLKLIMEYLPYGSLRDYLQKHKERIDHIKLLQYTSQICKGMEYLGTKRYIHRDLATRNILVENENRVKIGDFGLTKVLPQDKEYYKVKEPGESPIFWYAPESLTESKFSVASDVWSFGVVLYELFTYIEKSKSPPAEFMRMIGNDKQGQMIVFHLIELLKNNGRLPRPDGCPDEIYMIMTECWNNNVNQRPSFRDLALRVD
T1 sequence (P23458 875-1153 limits assumed): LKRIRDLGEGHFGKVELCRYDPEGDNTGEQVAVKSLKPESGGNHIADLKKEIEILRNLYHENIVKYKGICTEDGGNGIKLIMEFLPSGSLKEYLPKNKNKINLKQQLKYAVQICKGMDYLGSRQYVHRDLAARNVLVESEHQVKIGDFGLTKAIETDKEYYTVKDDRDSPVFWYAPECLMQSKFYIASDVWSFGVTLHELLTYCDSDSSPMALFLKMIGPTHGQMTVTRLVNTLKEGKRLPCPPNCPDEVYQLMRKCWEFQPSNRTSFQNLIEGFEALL

Ki [1] [nM]	Ki [2] [nM]	Compound	IC50 [3] [nM]
0.39	0.4	CSc1ccc(OC(F)F)c(-c2nn(CC(=O)N3CC4CCCNC4C3)cc2NC(=O)c2cnn3cccnc23)c1 (stereo not drawn) [Example 35, N-[1-[2-(1,2,3,4,4a,5,7,7a-octahydropyrrolo[3,4-b]pyridin-6-yl)-2-oxo-ethyl]-3-[2-(difluoromethoxy)-5-methylsulfanyl-phenyl]pyrazol-4-yl]pyrazolo[1,5-a]pyrimidine-3-carboxamide]	19
0.36	0.29	CSc1ccc(OC(F)F)c(-c2nn(CCNC3COC3)cc2NC(=O)c2cnn3cccnc23)c1 [Example 36, N-[3-[2-(difluoromethoxy)-5-methylsulfanyl-phenyl]-1-[2-(oxetan-3-ylamino)ethyl]pyrazol-4-yl]pyrazolo[1,5-a]pyrimidine-3-carboxamide]	9.8
0.22	0.48	CSc1ccc(OC(F)F)c(-c2nn(C[C@H]3CCCN3C)cc2NC(=O)c2cnn3cccnc23)c1 [Example 37, N-[3-[2-(difluoromethoxy)-5-methylsulfanyl-phenyl]-1-[[(2R)-1-methylpyrrolidin-2-yl]methyl]pyrazol-4-yl]pyrazolo[1,5-a]pyrimidine-3-carboxamide]	9.9
0.23	0.19	CSc1ccc(OC(F)F)c(-c2nn(CCN[C@@H]3CCCOC3)cc2NC(=O)c2cnn3cccnc23)c1 [Example 38, N-[3-[2-(difluoromethoxy)-5-methylsulfanyl-phenyl]-1-[2-[[(3R)-tetrahydropyran-3-yl]amino]ethyl]pyrazol-4-yl]pyrazolo[1,5-a]pyrimidine-3-carboxamide]	20
0.3	0.33	CSc1ccc(OC(F)F)c(-c2nn(CC(=O)N3CC4CCCN(C)C4C3)cc2NC(=O)c2cnn3cccnc23)c1 (stereo not drawn) [Example 39, N-[3-[2-(difluoromethoxy)-5-methylsulfanyl-phenyl]-1-[2-(1-methyl-3,4,4a,5,7,7a-hexahydro-2H-pyrrolo[3,4-b]pyridin-6-yl)-2-oxo-ethyl]pyrazol-4-yl]pyrazolo[1,5-a]pyrimidine-3-carboxamide]	19
0.28	0.25	CSc1ccc(OC(F)F)c(-c2nn(CCN[C@H]3C[C@H](O)C3)cc2NC(=O)c2cnn3cccnc23)c1 [Example 40]	9.5
0.27	0.45	CSc1ccc(OC(F)F)c(-c2nn(CC(=O)N3CCC(NCC4(C#N)CC4)CC3)cc2NC(=O)c2cnn3cccnc23)c1 [Example 41, N-[1-[2-[4-[(1-cyanocyclopropyl)methylamino]-1-piperidyl]-2-oxo-ethyl]-3-[2-(difluoromethoxy)-5-methylsulfanyl-phenyl]pyrazol-4-yl]pyrazolo[1,5-a]pyrimidine-3-carboxamide]	20
0.17	0.26	CSc1ccc(OC(F)F)c(-c2nn(CC(=O)N3CCC(N(C)CC4(C#N)CC4)CC3)cc2NC(=O)c2cnn3cccnc23)c1 [Example 42, N-[1-[2-[4-[(1-cyanocyclopropyl)methyl-methyl-amino]-1-piperidyl]-2-oxo-ethyl]-3-[2-(difluoromethoxy)-5-methylsulfanyl-phenyl]pyrazol-4-yl]pyrazolo[1,5-a]pyrimidine-3-carboxamide]	13
0.35	0.87	CSc1ccc(OC(F)F)c(-c2nn(CC(=O)N3CCC(CN4CCC[C@H]4C(=O)N(C)C)CC3)cc2NC(=O)c2cnn3cccnc23)c1 [Example 43, N-[3-[2-(difluoromethoxy)-5-methylsulfanyl-phenyl]-1-[2-[4-[[(2S)-2-(dimethylcarbamoyl)pyrrolidin-1-yl]methyl]-1-piperidyl]-2-oxo-ethyl]pyrazol-4-yl]pyrazolo[1,5-a]pyrimidine-3-carboxamide]	76
0.38	0.72	CNC(=O)[C@@H]1CCCN1CC1CCN(C(=O)Cn2cc(NC(=O)c3cnn4cccnc34)c(-c3cc(SC)ccc3OC(F)F)n2)CC1 [Example 44, N-[3-[2-(difluoromethoxy)-5-methylsulfanyl-phenyl]-1-[2-[4-[[(2S)-2-(methylcarbamoyl)pyrrolidin-1-yl]methyl]-1-piperidyl]-2-oxo-ethyl]pyrazol-4-yl]pyrazolo[1,5-a]pyrimidine-3-carboxamide]	73
0.32	0.68	CSc1ccc(OC(F)F)c(-c2nn(CC(=O)N3CCC(N4CCCOCC4)CC3)cc2NC(=O)c2cnn3cccnc23)c1 [Example 45, N-[3-[2-(difluoromethoxy)-5-methylsulfanyl-phenyl]-1-[2-[4-(1,4-oxazepan-4-yl)-1-piperidyl]-2-oxo-ethyl]pyrazol-4-yl]pyrazolo[1,5-a]pyrimidine-3-carboxamide]	44
0.25	0.44	CSc1ccc(OC(F)F)c(-c2nn(CC(=O)N3CCC(N(C)C4COC4)CC3)cc2NC(=O)c2cnn3cccnc23)c1 [Example 46, N-(3-(2-(difluoromethoxy)-5-(methylthio)phenyl)-1-(2-(4-(methyl(oxetan-3-yl)amino)piperidin-1-yl)-2-oxoethyl)-1H-pyrazol-4-yl)pyrazolo[1,5-a]pyrimidine-3-carboxamide]	22
0.52	1.3	CSc1ccc(OC(F)F)c(-c2nn(CC(=O)N3CCC(N4CCC[C@H]4C(=O)N(C)C)CC3)cc2NC(=O)c2cnn3cccnc23)c1 [Example 47, N-[3-[2-(difluoromethoxy)-5-methylsulfanyl-phenyl]-1-[2-[4-[(2S)-2-(dimethylcarbamoyl)pyrrolidin-1-yl]-1-piperidyl]-2-oxo-ethyl]pyrazol-4-yl]pyrazolo[1,5-a]pyrimidine-3-carboxamide]	350
0.29	0.44	CSc1ccc(OC(F)F)c(-c2nn(CC(=O)N3CCC(N4CC[S+]([O-])CC4)CC3)cc2NC(=O)c2cnn3cccnc23)c1 [Example 48, N-[3-[2-(difluoromethoxy)-5-methylsulfanyl-phenyl]-1-[2-oxo-2-[4-(1-oxo-1,4-thiazinan-4-yl)-1-piperidyl]ethyl]pyrazol-4-yl]pyrazolo[1,5-a]pyrimidine-3-carboxamide]	410
0.28	0.62	CSc1ccc(OC(F)F)c(-c2nn(CC(=O)N3CCC(N(C)[C@H]4CCOC4)CC3)cc2NC(=O)c2cnn3cccnc23)c1 [Example 49, N-[3-[2-(difluoromethoxy)-5-methylsulfanyl-phenyl]-1-[2-[4-[methyl-[(3S)-tetrahydrofuran-3-yl]amino]-1-piperidyl]-2-oxo-ethyl]pyrazol-4-yl]pyrazolo[1,5-a]pyrimidine-3-carboxamide]	15
0.5	0.96	CSc1ccc(OC(F)F)c(-c2nn(CC(=O)N3CCC(N(C)CC4OCCO4)CC3)cc2NC(=O)c2cnn3cccnc23)c1 [Example 50]	18
0.43	0.97	CSc1ccc(OC(F)F)c(-c2nn(CC(=O)N3CCC(N(C)CC4(C)OCCO4)CC3)cc2NC(=O)c2cnn3cccnc23)c1 [Example 51, N-[3-[2-(difluoromethoxy)-5-methylsulfanyl-phenyl]-1-[2-[4-[methyl-[(2-methyl-1,3-dioxolan-2-yl)methyl]amino]-1-piperidyl]-2-oxo-ethyl]pyrazol-4-yl]pyrazolo[1,5-a]pyrimidine-3-carboxamide]	26
